According to ChEMBL document CHEMBL4433208, “N-Nitrosulfonamides as Carbonic Anhydrase Inhibitors: A Promising Chemotype for Targeting Chagas Disease and Leishmaniasis” (ACS Med Chem Lett, 2019):
≈ marks a conversion by molar mass, not a printed value.

Tests used:
[1] = in vitro; settings: mouse, RAW264.7 cells
Description: Cytotoxicity against mouse RAW264.7 cells assessed as reduction in cell viability after 48 hrs by MTT assay

[2] = tested on: Leishmania infantum; test: microbe, parasite or virus in culture; format: functional; settings: MHOM/BR/1974/PP75, 48 h
Description: Antileishmanial activity against Leishmania infantum MHOM/BR/1974/PP75 promastigotes after 48 hrs by resazurin dye based assay

[3] = tested on: Leishmania infantum; test: microbe, parasite or virus in culture; format: functional, organism-based; settings: MHOM/BR/1974/PP75, 48 h
Description: Antileishmanial activity against Leishmania infantum MHOM/BR/1974/PP75 promastigotes assessed as reduction in parasite viability after 48 hrs by resazurin dye based assay

[4] = tested on: Leishmania amazonensis; test: microbe, parasite or virus in culture; format: functional; settings: IFLA/BR/1967/PH8, 48 h
Description: Antileishmanial activity against Leishmania amazonensis IFLA/BR/1967/PH8 promastigotes after 48 hrs by resazurin dye based assay

[5] = tested on: Leishmania amazonensis; test: microbe, parasite or virus in culture; format: functional, organism-based; settings: IFLA/BR/1967/PH8, 48 h
Description: Antileishmanial activity against Leishmania amazonensis IFLA/BR/1967/PH8 promastigotes assessed as reduction in parasite viability IFLA/BR/1967/PH8 after 48 hrs by resazurin dye based assay

[6] = tested on: Trypanosoma cruzi; test: microbe, parasite or virus in culture; format: functional; settings: Dm28c, 48 h
Description: Antitrypanosomal activity against Trypanosoma cruzi Dm28c epimastigotes after 48 hrs by resazurin dye based assay

[7] = in vitro; settings: chlorocebus sabaeus, Vero cells
Description: Cytotoxicity against African green monkey Vero cells 72 hrs by CellTiter-Glo assay

[8] = tested on: Trypanosoma cruzi; test: microbe, parasite or virus in culture; format: functional; settings: Y
Description: Antitrypanosomal activity against Trypanosoma cruzi Y epimastigotes resazurin dye based assay

SMILES | CC50 at 48 h [1] | MIC [2] | IC50 [3] | MIC [4] | IC50 [5] | MIC [6] | CC50 at 72 h [7] | MIC [8]
C[C@@H]1[C@H](O)[C@@H](C)/C=C/C=C/C=C/C=C/C=C/C=C/C=C/[C@H](O[C@@H]2O[C@H](C)[C@@H](O)[C@H](N)[C@@H]2O)C[C@@H]2O[C@](O)(C[C@@H](O)C[C@@H](O)[C@H](O)CC[C@@H](O)C[C@@H](O)CC(=O)O[C@H]1C)C[C@H](O)[C@H]2C(=O)O [AMPHOTERICIN B] | 1000 nM | 8 µM (≈ 7.39 µg/mL) | 1770 nM | 8 µM (≈ 7.39 µg/mL) | 1650 nM | – | – | –
O=C(Cn1ccnc1[N+](=O)[O-])NCc1ccccc1 [BENZNIDAZOLE] | 138000 nM | – | – | – | – | 32 µM (≈ 8.33 µg/mL) | > 500000 nM | 32 µM (≈ 8.33 µg/mL)
